In PMC7979765, “trans-Translation inhibitors bind to a novel site on the ribosome and clear Neisseria gonorrhoeae in vivo” (Nature Communications, 2021):
Values after ≈ are worked out from the molar mass of the structure shown. Values joined by “and” are separate entries in the source; they are usually repeats but may differ in a detail not shown here. Equal values may be shown once. “Also recorded” adds a separate entry of the source. Read-outs that look alike come from different tables or passages of the source.

Key:
Kv4.3/ChIP2 = target: T1, Kv4.3/ChIP2 (Homo sapiens, UniProt Q9UK17); assay: Cardiac Ion Channel Panel; assay type: cell-based; conditions: Kv4.3/ChIP2 antagonist; Peak $ End; CYL8069QP2DR; read-out: IC50 (µM) reported
T1 construct: Eurofins Discovery Services (contract assay) CYL8069QP2DR
Protocol: (§1) Several in vitro selectivity assays were performed at Eurofins Discovery Services using established methods and controls that behaved as expected (Supplementary Tables 5 and 6). […] For receptor panel profiling, MBX-4132 was evaluated at 10 μM and activity of >50% (agonist or antagonist; note that negative % inhibition indicates agonism) was scored as active.

hERG = target: T2, hERG (Homo sapiens, UniProt Q12809); assay: Cardiac Ion Channel Panel; assay type: cell-based; conditions: hERG antagonist; CYL8038QP2DR; read-out: IC50 (µM) reported
T2 construct: Eurofins Discovery Services (contract assay) CYL8038QP2DR
Protocol: as §1

Nav1.5 late current = target: T3, Nav1.5 late current (Homo sapiens, UniProt Q14524); assay: Cardiac Ion Channel Panel; assay type: cell-based
T3 construct: Eurofins Discovery Services (contract assay) CYL8004QP2DR; CYL7004QP1DR; CYL7004QP2DR
Protocol: as §1

Nav1.5 = target: T4, Nav1.5 (Homo sapiens, UniProt Q14524); assay: Cardiac Ion Channel Panel; assay type: cell-based
T4 construct: Eurofins Discovery Services (contract assay) CYL8004QP2DR; CYL7004QP1DR; CYL7004QP2DR
Protocol: as §1

Kir2.1 = target: T5, Kir2.1 (Homo sapiens, UniProt P63252); assay: Cardiac Ion Channel Panel; assay type: cell-based; conditions: Kir2.1 antagonist; Peak $ End; CYL8032QP2DR; read-out: IC50 (µM) reported
T5 construct: Eurofins Discovery Services (contract assay) CYL8032QP2DR
Protocol: as §1

[1] = Serum shift of MIC (+/- 10% fetal bovine serum)
CYP2D6 = target: T6, CYP2D6 (Homo sapiens, UniProt P10635); assay: Cyp inhibition assay 4875; assay type: in vitro ADME; conditions: catalog reference 4875, read-out: pIC50 (µM) reported (converted)
T6 construct: Eurofins Discovery Services (contract assay) 4875
Protocol: as §1

Muscarinic M2 = target: T7, Muscarinic M2 (Homo sapiens, UniProt P08172); assay: Receptor Profiling 252710; assay type: binding
T7 construct: purchased Eurofins Discovery Services (Panlabs safety panel)
Protocol: as §1

[2] = Liver microsome stability, dog; assay type: in vitro ADME; conditions: for half-life: dog, liver microsomes
Protocol: (§2) To examine potential for first-pass metabolism of analogs in the liver, the stability of analogs in the presence of liver microsome preparations (Eurofins Discovery for human, dog and rat; Xenotech for mouse) was measured using the method of Kuhnz, et al.[50]. for murine studies and Oback for the dog, human and rat studies. The amount of parent compound remaining after incubation with microsomes in the presence of NADPH over a 30 min time range was measured using a reverse-phase liquid chromatography/mass spectroscopy method that was customized for each compound. Half-lives were calculated using linear regression analysis of several time points.

[3] = system: N. gonorrhoeae ATCC 49226; assay: Time-kill assay
[4] = Serum protein binding, human; assay type: in vitro ADME; conditions: read-out: Serum binding (% bound) Human (converted)
Protocol: Serum protein binding was determined using an equilibrium dialysis method as described. The amount of compound in each chamber (buffer and serum) was measured using methods for reverse-phase liquid chromatography/mass spectroscopy methods that were customized for each compound.

[5] = target: T8, Serotonin (5-hydroxytryptamine) 5-HT1A (Homo sapiens, UniProt P08908); assay: Receptor Profiling 271110; assay type: binding
T8 construct: purchased Eurofins Discovery Services (Panlabs safety panel)
Protocol: as §1

Adrenergic β1 = target: T9, Adrenergic β1 (Homo sapiens, UniProt P08588); assay: Receptor Profiling 204010; assay type: binding
T9 construct: purchased Eurofins Discovery Services (Panlabs safety panel)
Protocol: as §1

[6] = target: T10, Serotonin (5-hydroxytryptamine) 5-HT3 (Homo sapiens, UniProt P46098); assay: Receptor Profiling 271910; assay type: binding
T10 construct: Eurofins Discovery Services (contract assay) 271910
Protocol: as §1

CYP2C9 = target: T11, CYP2C9 (Homo sapiens, UniProt P11712); assay: Cyp inhibition assay 4878; assay type: in vitro ADME; conditions: catalog reference 4878
T11 construct: Eurofins Discovery Services (contract assay) 4878
Protocol: as §1

[7] = target: T12, Transporter, Dopamine (DAT) (Homo sapiens, UniProt Q01959); assay: Receptor Profiling 220320; assay type: binding
T12 construct: Eurofins Discovery Services (contract assay) 220320
Protocol: as §1

[8] = Liver microsome stability, human; assay type: in vitro ADME
Protocol: as §2

translation = assay: In vitro translation assay (full-length nano-luciferase gene); assay type: biochemical, Escherichia coli; conditions: for % of translation activity: 0 uM = 100

T3 sequence (Q14524 whole entry): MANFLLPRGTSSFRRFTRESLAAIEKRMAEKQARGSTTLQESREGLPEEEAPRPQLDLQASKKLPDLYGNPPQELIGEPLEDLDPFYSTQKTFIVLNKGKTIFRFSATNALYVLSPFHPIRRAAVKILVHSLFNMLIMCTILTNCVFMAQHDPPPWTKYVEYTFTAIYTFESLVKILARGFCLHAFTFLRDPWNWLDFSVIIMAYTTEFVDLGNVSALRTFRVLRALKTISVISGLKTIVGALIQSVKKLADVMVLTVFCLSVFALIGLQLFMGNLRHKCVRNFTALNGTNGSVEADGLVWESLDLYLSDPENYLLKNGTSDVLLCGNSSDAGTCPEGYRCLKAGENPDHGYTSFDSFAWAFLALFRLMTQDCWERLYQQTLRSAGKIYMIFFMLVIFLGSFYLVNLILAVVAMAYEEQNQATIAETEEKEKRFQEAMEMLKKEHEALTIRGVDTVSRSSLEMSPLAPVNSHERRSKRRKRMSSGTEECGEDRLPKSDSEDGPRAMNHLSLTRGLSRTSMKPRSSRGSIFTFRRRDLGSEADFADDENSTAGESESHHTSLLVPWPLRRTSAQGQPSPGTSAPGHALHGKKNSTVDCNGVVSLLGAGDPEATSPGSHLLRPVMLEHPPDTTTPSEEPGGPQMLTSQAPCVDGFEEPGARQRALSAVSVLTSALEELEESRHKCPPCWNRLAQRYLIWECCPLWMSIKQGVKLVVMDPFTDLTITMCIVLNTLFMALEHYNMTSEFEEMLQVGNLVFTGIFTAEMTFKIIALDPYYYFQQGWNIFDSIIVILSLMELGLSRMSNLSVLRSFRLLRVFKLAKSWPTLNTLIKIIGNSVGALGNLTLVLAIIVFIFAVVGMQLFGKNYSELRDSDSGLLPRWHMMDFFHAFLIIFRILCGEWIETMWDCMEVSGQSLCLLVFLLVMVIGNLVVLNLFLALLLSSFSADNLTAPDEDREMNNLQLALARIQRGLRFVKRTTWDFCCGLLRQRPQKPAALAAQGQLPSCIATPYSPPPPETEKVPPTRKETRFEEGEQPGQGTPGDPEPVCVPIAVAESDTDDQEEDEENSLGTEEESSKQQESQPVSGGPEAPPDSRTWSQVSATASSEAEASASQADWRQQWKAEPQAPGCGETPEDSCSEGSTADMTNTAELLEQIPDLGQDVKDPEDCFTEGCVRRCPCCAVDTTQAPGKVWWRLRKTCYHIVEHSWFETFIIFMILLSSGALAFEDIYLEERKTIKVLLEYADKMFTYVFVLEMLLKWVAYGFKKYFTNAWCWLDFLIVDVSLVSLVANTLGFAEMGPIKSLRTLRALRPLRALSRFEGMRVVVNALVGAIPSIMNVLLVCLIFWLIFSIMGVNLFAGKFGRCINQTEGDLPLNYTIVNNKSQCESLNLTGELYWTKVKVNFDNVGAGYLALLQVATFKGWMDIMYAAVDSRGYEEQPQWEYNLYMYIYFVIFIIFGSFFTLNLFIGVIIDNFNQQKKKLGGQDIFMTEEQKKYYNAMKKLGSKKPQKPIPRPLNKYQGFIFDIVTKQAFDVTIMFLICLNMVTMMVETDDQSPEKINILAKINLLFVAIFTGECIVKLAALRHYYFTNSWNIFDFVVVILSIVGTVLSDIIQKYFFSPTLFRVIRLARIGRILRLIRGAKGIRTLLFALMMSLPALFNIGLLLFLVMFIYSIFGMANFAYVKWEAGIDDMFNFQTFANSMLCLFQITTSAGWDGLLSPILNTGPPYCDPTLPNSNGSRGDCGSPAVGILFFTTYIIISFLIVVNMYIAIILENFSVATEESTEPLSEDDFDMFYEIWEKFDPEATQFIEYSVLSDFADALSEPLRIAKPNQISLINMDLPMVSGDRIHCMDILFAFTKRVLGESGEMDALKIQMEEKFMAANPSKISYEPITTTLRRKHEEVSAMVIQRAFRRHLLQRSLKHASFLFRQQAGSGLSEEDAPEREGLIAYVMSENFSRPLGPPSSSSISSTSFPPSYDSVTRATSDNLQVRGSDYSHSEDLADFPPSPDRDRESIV
T2 sequence (Q12809 whole entry): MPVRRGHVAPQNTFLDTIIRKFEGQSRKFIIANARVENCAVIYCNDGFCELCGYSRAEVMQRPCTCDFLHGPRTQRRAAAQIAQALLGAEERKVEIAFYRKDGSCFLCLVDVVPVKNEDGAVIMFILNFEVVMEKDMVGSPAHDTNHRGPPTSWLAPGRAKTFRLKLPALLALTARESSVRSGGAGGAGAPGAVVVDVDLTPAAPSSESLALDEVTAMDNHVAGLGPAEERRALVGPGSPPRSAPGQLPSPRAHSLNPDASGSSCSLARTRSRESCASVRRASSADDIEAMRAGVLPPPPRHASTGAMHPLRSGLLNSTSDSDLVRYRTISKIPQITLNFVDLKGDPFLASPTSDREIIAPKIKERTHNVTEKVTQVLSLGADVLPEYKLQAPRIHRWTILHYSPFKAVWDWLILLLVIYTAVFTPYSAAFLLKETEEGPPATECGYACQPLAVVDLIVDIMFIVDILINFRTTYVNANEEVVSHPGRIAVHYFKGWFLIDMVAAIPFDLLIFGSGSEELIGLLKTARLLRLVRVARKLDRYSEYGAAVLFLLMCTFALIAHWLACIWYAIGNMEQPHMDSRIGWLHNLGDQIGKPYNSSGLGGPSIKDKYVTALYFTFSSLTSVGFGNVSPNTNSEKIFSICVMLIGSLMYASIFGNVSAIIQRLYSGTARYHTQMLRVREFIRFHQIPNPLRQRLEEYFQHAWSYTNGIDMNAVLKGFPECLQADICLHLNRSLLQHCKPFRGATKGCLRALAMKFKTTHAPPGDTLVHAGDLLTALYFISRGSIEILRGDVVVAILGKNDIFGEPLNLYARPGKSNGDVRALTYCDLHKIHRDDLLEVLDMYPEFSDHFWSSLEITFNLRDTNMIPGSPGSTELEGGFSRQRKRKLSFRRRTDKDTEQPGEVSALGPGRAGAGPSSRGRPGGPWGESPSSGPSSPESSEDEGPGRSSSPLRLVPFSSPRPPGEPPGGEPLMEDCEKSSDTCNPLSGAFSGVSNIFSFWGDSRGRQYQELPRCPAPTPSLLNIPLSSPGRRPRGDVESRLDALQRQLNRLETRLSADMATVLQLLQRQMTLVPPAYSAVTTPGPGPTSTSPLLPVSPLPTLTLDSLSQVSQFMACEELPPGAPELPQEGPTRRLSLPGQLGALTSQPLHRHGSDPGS
T6 sequence (P10635 whole entry): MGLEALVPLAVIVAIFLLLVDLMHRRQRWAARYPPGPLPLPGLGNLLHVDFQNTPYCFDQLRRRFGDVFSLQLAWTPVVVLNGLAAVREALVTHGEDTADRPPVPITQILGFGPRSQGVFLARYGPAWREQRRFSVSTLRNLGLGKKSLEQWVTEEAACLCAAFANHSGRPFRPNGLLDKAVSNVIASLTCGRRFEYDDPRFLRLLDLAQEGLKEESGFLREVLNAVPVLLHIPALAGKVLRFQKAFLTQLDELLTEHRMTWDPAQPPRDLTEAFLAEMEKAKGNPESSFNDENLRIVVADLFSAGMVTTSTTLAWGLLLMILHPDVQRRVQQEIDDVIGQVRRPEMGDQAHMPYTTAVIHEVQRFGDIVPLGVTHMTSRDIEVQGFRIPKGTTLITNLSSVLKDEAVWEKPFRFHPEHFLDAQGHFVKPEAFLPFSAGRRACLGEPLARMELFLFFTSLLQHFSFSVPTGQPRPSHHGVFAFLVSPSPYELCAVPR
T7 sequence (P08172 whole entry): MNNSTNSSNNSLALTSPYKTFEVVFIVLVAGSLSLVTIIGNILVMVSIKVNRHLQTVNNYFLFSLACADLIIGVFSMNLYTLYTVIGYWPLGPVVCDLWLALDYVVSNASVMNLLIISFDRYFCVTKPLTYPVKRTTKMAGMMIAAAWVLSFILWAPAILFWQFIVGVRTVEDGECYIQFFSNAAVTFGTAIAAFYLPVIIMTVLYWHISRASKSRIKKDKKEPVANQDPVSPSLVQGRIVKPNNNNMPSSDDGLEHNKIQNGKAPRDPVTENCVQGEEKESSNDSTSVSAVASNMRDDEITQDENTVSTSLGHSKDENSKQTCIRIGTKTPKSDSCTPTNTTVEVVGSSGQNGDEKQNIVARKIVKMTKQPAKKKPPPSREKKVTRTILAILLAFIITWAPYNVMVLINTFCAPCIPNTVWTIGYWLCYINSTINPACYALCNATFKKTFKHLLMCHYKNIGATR
T11 sequence (P11712 whole entry): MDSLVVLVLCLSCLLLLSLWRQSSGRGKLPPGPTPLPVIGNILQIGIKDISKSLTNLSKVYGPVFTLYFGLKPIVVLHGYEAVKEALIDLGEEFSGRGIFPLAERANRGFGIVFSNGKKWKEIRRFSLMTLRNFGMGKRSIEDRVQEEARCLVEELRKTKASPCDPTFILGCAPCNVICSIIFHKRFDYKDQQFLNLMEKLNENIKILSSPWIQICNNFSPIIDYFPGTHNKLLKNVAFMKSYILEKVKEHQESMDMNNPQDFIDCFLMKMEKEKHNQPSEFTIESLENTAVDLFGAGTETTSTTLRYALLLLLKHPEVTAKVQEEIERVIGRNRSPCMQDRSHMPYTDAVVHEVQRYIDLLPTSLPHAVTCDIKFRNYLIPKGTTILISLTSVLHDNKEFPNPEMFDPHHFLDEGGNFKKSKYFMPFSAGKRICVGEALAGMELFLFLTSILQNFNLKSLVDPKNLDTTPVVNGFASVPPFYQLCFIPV
T5 sequence (P63252 whole entry): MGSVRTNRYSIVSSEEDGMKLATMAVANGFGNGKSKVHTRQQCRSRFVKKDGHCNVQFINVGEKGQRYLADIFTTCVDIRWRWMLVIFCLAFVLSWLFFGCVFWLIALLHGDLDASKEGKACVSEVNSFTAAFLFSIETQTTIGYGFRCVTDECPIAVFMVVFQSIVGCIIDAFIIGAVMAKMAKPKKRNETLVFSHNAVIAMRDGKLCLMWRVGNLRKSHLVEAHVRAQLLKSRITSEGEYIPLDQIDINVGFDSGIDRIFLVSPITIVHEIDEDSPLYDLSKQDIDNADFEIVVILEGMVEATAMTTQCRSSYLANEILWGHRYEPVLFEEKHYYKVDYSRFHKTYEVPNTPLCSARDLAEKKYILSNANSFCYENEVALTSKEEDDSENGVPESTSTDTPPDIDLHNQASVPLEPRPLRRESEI

## O=C(Nc1nnc(-c2ccc(F)cc2)o1)N1CCc2ccccc2C1 [MBX-4132]
Kv4.3/ChIP2
  IC50: > 30 µM
hERG
  IC50: > 30 µM
Nav1.5 late current
  IC50: > 30 µM
Nav1.5 late current; read-out: Est. IC50, Antagonist mode
  IC50: > 30 µM
Nav1.5 late current; read-out: IC50 (µM) reported, Nav1.5 late current agonist, CYL7004QP1DR
  IC50: > 30 µM
Nav1.5 late current; read-out: IC50 (µM) reported, Nav1.5 late current antagonist, CYL7004QP2DR
  IC50: > 30 µM
Nav1.5
  IC50: > 30 µM
Kir2.1
  IC50: > 30 µM
[1]; Average Value
  Serum shift (fold): 16 fold
[1]; Ratio of MIC +/- 10% fetal bovine serum added
  serum Shift: 16
[1]; Replicate 1/2
  Serum shift (fold): 16 fold
CYP2D6
  IC50: > 100 µM
Muscarinic M2
  inhibition at 10 µM: 7%
[2]; Replicate 1/2, Eurofins
  Microsomal stability (t½, min) Dog: >>60 min
[2]; Average Value, Eurofins, read-out: Microsomal stability (t½, min) Dog
  half-life: > 60 min
[2]; Replicate 1/2, Eurofins, read-out: Microsomal stability (t½, min) Dog
  half-life: > 60 min
[2]; Reported value, Eurofins, read-out: Microsomal stability (t½, min) Dog
  half-life: > 120 min
[2]; read-out: Microsomal Stability (t1/2; min) Dog
  half-life: > 120 min
[3]; 1X MIC, 0 h
  AVE CFU/ml: 9800000 CFU/ml
[3]; 1X MIC, 1 h
  AVE CFU/ml: 7.80E+06 CFU/ml and 7800000 CFU/ml
  CFU/mL, replicates 1-3: 7400000 CFU/mL and 6800000 CFU/mL and 9200000 CFU/mL
[3]; 1X MIC, 2 h
  AVE CFU/ml: 3.60E+06 CFU/ml and 3600000 CFU/ml
  CFU/mL, replicates 1-3: 3800000 CFU/mL and 3600000 CFU/mL and 3400000 CFU/mL
[3]; 1X MIC, 4 h
  AVE CFU/ml: 5133333 CFU/ml and 5.13E+06 CFU/ml
  CFU/mL, replicates 1-3: 5800000 CFU/mL and 5200000 CFU/mL and 4400000 CFU/mL
[3]; 1X MIC, 6 h
  AVE CFU/ml: 6200000 CFU/ml and 6.20E+06 CFU/ml
  CFU/mL, replicates 1-3: 6000000 CFU/mL and 5800000 CFU/mL and 6800000 CFU/mL
[3]; 1X MIC, 8 h
  AVE CFU/ml: 1173333 CFU/ml
[3]; 1X MIC, 8 h, listed as 4132
  AVE CFU/ml: 1.17E+06 CFU/ml
  CFU/mL, replicates 1-3: 1120000 CFU/mL and 1160000 CFU/mL and 1240000 CFU/mL
[3]; 1X MIC, 24 h
  AVE CFU/ml: 6866667 CFU/ml and 6.87E+06 CFU/ml
  CFU/mL, replicates 1-3: 7400000 CFU/mL and 6400000 CFU/mL and 6800000 CFU/mL
[3]; 4X MIC, 0 h
  AVE CFU/ml: 9800000 CFU/ml
[3]; 4X MIC, 1 h
  AVE CFU/ml: 5.73E+06 CFU/ml and 5733333 CFU/ml
  CFU/mL, replicates 1-3: 6400000 CFU/mL and 5600000 CFU/mL and 5200000 CFU/mL
[3]; 4X MIC, 2 h
  AVE CFU/ml: 3.73E+06 CFU/ml and 3733333 CFU/ml
  CFU/mL, replicates 1-3: 3600000 CFU/mL and 3400000 CFU/mL and 4200000 CFU/mL
[3]; 4X MIC, 4 h
  AVE CFU/ml: 2733333 CFU/ml and 2.73E+06 CFU/ml
  CFU/mL, replicates 1-3: 2400000 CFU/mL (2×) and 3400000 CFU/mL
[3]; 4X MIC, 6 h
  AVE CFU/ml: 2866667 CFU/ml and 2.87E+06 CFU/ml
  CFU/mL, replicates 1-3: 3000000 CFU/mL (2×) and 2600000 CFU/mL
[3]; 4X MIC, 8 h
  AVE CFU/ml: 760000 CFU/ml and 7.60E+05 CFU/ml
  CFU/mL, replicates 1-3: 780000 CFU/mL and 800000 CFU/mL and 700000 CFU/mL
[3]; 4X MIC, 24 h
  AVE CFU/ml: 0 CFU/ml and 0.00E+00 CFU/ml
  CFU/mL, replicates 1-3: 0 CFU/mL
[3]; 8X MIC, 0 h
  AVE CFU/ml: 9800000 CFU/ml
[3]; 8X MIC, 1 h
  AVE CFU/ml: 5.13E+06 CFU/ml and 5133333 CFU/ml
  CFU/mL, replicates 1-3: 5200000 CFU/mL and 4600000 CFU/mL and 5600000 CFU/mL
[3]; 8X MIC, 2 h
  AVE CFU/ml: 4.93E+06 CFU/ml and 4933333 CFU/ml
  CFU/mL, replicates 1-3: 5400000 CFU/mL and 5200000 CFU/mL and 4200000 CFU/mL
[3]; 8X MIC, 4 h
  AVE CFU/ml: 3000000 CFU/ml and 3.00E+06 CFU/ml
  CFU/mL, replicates 1-3: 3000000 CFU/mL and 2800000 CFU/mL and 3200000 CFU/mL
[3]; 8X MIC, 6 h
  AVE CFU/ml: 993333 CFU/ml and 9.93E+05 CFU/ml
  CFU/mL, replicates 1-3: 1060000 CFU/mL and 940000 CFU/mL and 980000 CFU/mL
[3]; 8X MIC, 8 h
  AVE CFU/ml: 433333 CFU/ml and 4.33E+05 CFU/ml
  CFU/mL, replicates 1-3: 400000 CFU/mL and 480000 CFU/mL and 420000 CFU/mL
[3]; 8X MIC, 24 h
  AVE CFU/ml: 0 CFU/ml and 0.00E+00 CFU/ml
  CFU/mL, replicates 1-3: 0 CFU/mL
[3]; Neisseria gonorrhoeae, ATCC49226
  MIC: 0.5 µg/mL (≈ 1.48 µM)
[3]; time-kill, N. gonorrhoeae
  bactericidal concentration: ≥ 4 X MIC
[4]; Average Value, Eurofins
  fraction unbound: 0.009
[4]; Replicate 1/2, Eurofins
  fraction unbound: 0.017 and 0.002
[4]; Reported value, Eurofins
  fraction unbound: 0.01
[5]
  inhibition at 10 µM: 30%
Adrenergic β1
  inhibition at 10 µM: -8%
[6]
  inhibition at 10 µM: 4%
CYP2C9
  pIC50 (µM) reported: No activity
[7]
  inhibition at 10 µM: 3%
[8]; Reported value, Eurofins
  Microsomal stability (t½, min) Human: >120 min
[8]; human, liver microsomes, read-out: Microsomal Stability (t1/2; min) Hum.
  half-life: > 2 h
translation; [MBX-4132] 0.01 uM
  % of translation activity: 94% and 99%
translation; [MBX-4132] 0.1 uM
  % of translation activity: 98% and 102%
translation; [MBX-4132] 1 uM
  % of translation activity: 92% and 103%
translation; [MBX-4132] 2 uM
  % of translation activity: 86% and 97%
translation; [MBX-4132] 10 uM
  % of translation activity: 106% and 98%
translation; [MBX-4132] 20 uM
  % of translation activity: 97% and 96%
translation; [MBX-4132] 50 uM
  % of translation activity: 93% and 99%
translation; full-length nano-luciferase gene control
  inhibition of translation in vitro (in words): did not inhibit translation; also recorded: does not inhibit translation
